In paper PMC12332667, “Role of Structural Modifications in Peptidomimetic Compounds as Potential Antimicrobial Agents against Staphylococcus aureus and Streptococcus pyogenes: Balancing Bioavailability, Safety, and Antimicrobial Activity” (ACS Omega, 2025):
≈ marks a conversion by molar mass, not a printed value. Where “and” joins values, the source holds several entries; their conditions need not be identical. Identical values can stand only once.

Legend:
[1] = system: human dermal fibroblast cell line (46BR.1N); assay: XTT cell proliferation assay, fibroblasts; format: cell-based; conditions: XTT
Protocol: (§1) In our study, we used two distinct cell types: immortalized human HaCaT keratinocytes (DKFZ, Heidelberg, Germany) and a human dermal fibroblast cell line (46BR.1N). […] Cultures were maintained in a humidified atmosphere with 5% CO2 at 37 °C in 25 cm^2 culture flasks with the medium replenished every 2 days. The condition of the cells was monitored using optical microscopy. […] After 24 h of incubation, the medium was replaced with serum-free HG-DMEM containing appropriate concentrations of peptidomimetics. All solutions used in the experiments were prepared with double-distilled water or with the addition of ethanol under sterile conditions to ensure compatibility with the conditions of the bacteriological assay. For 72 h of incubation, half of the medium was replaced with fresh medium after 48 h, and cells were stimulated with peptides for a second time. The XTT cell proliferation assay was then performed according to the manufacturer’s instructions (Roche, Switzerland). Cells were treated with the peptides for either 48 or 72 h, followed by the addition of XTT reagent, and the plates were then incubated at 37 °C in a 5% CO2 environment for 4 h. Plate readings were taken using a standard plate reader at a wavelength of 490 nm (OD = 490 nm). […] Statistical significance was determined with a Mann–Whitney U test with statistical significance p ≤ 0.05. Analysis was performed with Statistica software, and graphs were prepared in GraphPad Prism.

S. schleiferi c.i. = assay: MIC/MBC broth microdilution, S. schleiferi; format: cell-based, Staphylococcus schleiferi
Protocol: (§2) S. aureus (ATCC 29213),S. pyogenes (ATCC 19615),Streptococcus agalactiae (ATCC 27956),Escherichia coli (ATCC 25922),Proteus vulgaris (ATCC 6896),K. pneumoniae (ATCC 700603) andP. aeruginosa (ATCC 10145) reference strains, as well asStaphylococcus cohnii, Enterococcus faecalis, Staphylococcus schleiferi, Staphylococcus intermedius and Streptococcus mutans clinical isolates, were used to test the antibacterial activity of the peptidomimetics. Bacteria were aerobically cultured for 18 h at 37 °C in plates with sterilized brain heart infusion (BHI) broth (Sigma-Aldrich, USA) media mixed with bacteriological agar (Sigma-Aldrich, USA) using the streak plate method. After 18 h, BHI broth was inoculated to 0.5 on the McFarland scale and diluted to approximately 10^5 CFU/mL. To achieve a final stock concentration of 1024 μg/mL, the peptidomimetics were dissolved in sterile water, and 5–10% of absolute ethanol or dimethyl sulfoxide (DMSO) was added. The antibacterial activities were determined by using the standard broth microdilution method of the National Committee for Clinical Laboratory Standards. The process involved adding serially diluted peptidomimetics to consecutive wells of a 96-well microtiter plate (Brand, Germany) holding media with microorganisms. The inoculated plates treated with peptides were then placed in an incubator at 37 °C for 18 h. The MIC value was determined as the lowest concentration of peptidomimetic at which there was no obvious growth (equal or more than 90% of the untreated sample). […] The lowest concentration yielding growth in no more than 3 colonies, corresponding to at least a 99.9% kill rate, was taken as MBC. Each biological replicate included control wells with the addition of water, DMSO, and ethanol as respective solvent controls. All experiments were conducted with consistent adherence to growth and sterility controls and were performed at least in technical triplicate with three biological repeats.

S. intemrdius c.i. = assay: MIC/MBC broth microdilution, S. intermedius; format: cell-based, Staphylococcus intermedius
Protocol: as §2

[2] = system: immortalized human HaCaT keratinocytes; assay: XTT cell proliferation assay, keratinocytes; format: cell-based; conditions: XTT
Protocol: as §1

E. faecalis c.i. = assay: MIC/MBC broth microdilution, E. faecalis; format: cell-based, Enterococcus faecalis
Protocol: as §2

[3] = Hydrophobicity by reverse-phase chromatography; format: physicochemical; conditions: acetonitrile content in the mobile phase at the retention time
Text: Reverse-phase chromatography was employed to assess the hydrophobicity characteristics of the peptidomimetics. Hydrophobicity was quantified by determining the acetonitrile content in the mobile phase at the retention time of a peptidyl derivative (Table S2). The least hydrophobic compound (40% acetonitrile) was A-198, which aligns with the calculations of hydrophobicity by SwissADME and pkCSM (Table ). Next in the hydrophobicity sequence were A-197, A-220, A-219, A-174, and A-221, eluting with 42.5-43.9% of acetonitrile. Then there were followed by […], and A-179, with the acetonitrile percentage of 44.8-49.8. The compounds A-176, A-20, A-152, A-134, and A-210 needed over 50% of acetonitrile to be eluted from the column.

P. vulgaris ATCC 6896 = assay: MIC/MBC broth microdilution, P. vulgaris; format: cell-based, Proteus vulgaris
Protocol: as §2

P. aeruginosa ATCC 10145 = assay: MIC/MBC broth microdilution, P. aeruginosa; format: cell-based
Protocol: as §2

[4] = system: K. pneumoniae ATCC 700603; assay: MIC/MBC broth microdilution, K. pneumoniae; format: cell-based
Protocol: as §2

S. aureus ATCC 43300 = assay: MIC/MBC broth microdilution, S. aureus; format: cell-based, Staphylococcus aureus; conditions: for MBC / MIC: S. aureus
fibroblasts (46BR.1N) = assay: LDH cytotoxicity test, fibroblasts; format: cell-based; conditions: 48 h, 50-150 μg/mL
Protocol: In our study, we used two distinct cell types: immortalized human HaCaT keratinocytes (DKFZ, Heidelberg, Germany) and a human dermal fibroblast cell line (46BR.1N). […] Cultures were maintained in a humidified atmosphere with 5% CO2 at 37 °C in 25 cm^2 culture flasks with the medium replenished every 2 days. The condition of the cells was monitored using optical microscopy.
Cell death in immortalized human keratinocytes (HaCaT) and fibroblasts (46BR.1N) was measured by quantifying the lactate dehydrogenase (LDH) activity using a commercial kit (Roche, Switzerland). Cells were seeded in 96-well plates at a density of 5000 cells per well in DMEM high glucose medium supplemented with 10% FBS. After 24 h of incubation, the medium was replaced with serum-free medium containing various concentrations of peptidomimetics (50, 100, and 150 μg/mL). After 48 h, supernatants were collected for LDH analysis. Plate readings were taken spectrophotometrically using a 450 nm wavelength. Cell death measurements were normalized to an untreated control (0%), with 1% Triton X-100 detergent used as a positive control to induce maximum LDH release, indicating maximal cytotoxicity. Statistical significance was determined with a Mann–Whitney U test with a statistical significance p ≤ 0.05. Analysis was performed with Statistica software (Krakow, Poland) and graphs were prepared in GraphPad Prism (Boston, USA).

S. pyogenes ATCC 19615 = assay: MIC/MBC broth microdilution, S. pyogenes; format: cell-based, Streptococcus pyogenes; conditions: S. pyogenes
Protocol: as §2

E. coli ATCC 25922 = assay: MIC/MBC broth microdilution, E. coli; format: cell-based, Escherichia coli
Protocol: as §2

S. mutans c.i. = assay: MIC/MBC broth microdilution, S. mutans; format: cell-based, Streptococcus mutans
Protocol: as §2

For `CC(C)[C@@H](CNC(=O)C(=Cc1ccccc1)c1ccccc1)NC(=O)[C@H](CCCNC(=N)N)NC(=O)[C@H](CCCCN)NC(=O)OCc1ccccc1` [Compound A-191], the “proliferation relative to control at 100 and 150 μg/mL” value [1] was at most 20%, the “effect on proliferation, in words” value ([1]; 48 and 72 h, 0.01–150 μg/mL) was “negative impact” and the MBC (S. schleiferi c.i.; H2O) was 32 µg/mL (≈ 44 µM). The MIC (S. schleiferi c.i.; H2O) was 8 µg/mL (≈ 11 µM), the MBC (S. schleiferi c.i.; water additive DMSO) was 32 µg/mL (≈ 44 µM) and the MIC (S. schleiferi c.i.; water additive DMSO) was 8 µg/mL (≈ 11 µM). It also gave an MBC (S. schleiferi c.i.; water additive EtOH) of 32 µg/mL (≈ 44 µM), an MIC (S. schleiferi c.i.; water additive EtOH) of 8 µg/mL (≈ 11 µM) and an MIC (S. intemrdius c.i.; H2O) of 32 µg/mL (≈ 44 µM). For the same molecule, the MIC (S. intemrdius c.i.; water additive DMSO) was 32 µg/mL (≈ 44 µM), the MIC (S. intemrdius c.i.; water additive EtOH) was 32 µg/mL (≈ 44 µM) and the “proliferation relative to control at 100 and 150 μg/mL” value [2] was at most 20%. For the same molecule, the “effect on proliferation, in words” value ([2]; 48 and 72 h, 0.01–150 μg/mL) was “negative impact”, the MBC (E. faecalis c.i.; H2O) was over 512 µg/mL and the MIC (E. faecalis c.i.; H2O) was 512 µg/mL (≈ 704 µM). For the same molecule, the MBC (E. faecalis c.i.; water additive DMSO) was over 512 µg/mL, the MIC (E. faecalis c.i.; water additive DMSO) was 512 µg/mL (≈ 704 µM) and the MIC (E. faecalis c.i.; water additive EtOH) was over 512 µg/mL. For the same molecule, the “% AcCN (acetonitrile required for elution from the column)” value [3] was 44.8% and 44.8–49.8%, the MBC (P. vulgaris ATCC 6896; H2O) was over 512 µg/mL and the MIC (P. vulgaris ATCC 6896; H2O) was 512 µg/mL (≈ 704 µM). For the same molecule, the MIC (P. vulgaris ATCC 6896; water additive DMSO) was over 512 µg/mL, the MBC (P. vulgaris ATCC 6896; water additive EtOH) was over 512 µg/mL and the MIC (P. vulgaris ATCC 6896; water additive EtOH) was 512 µg/mL (≈ 704 µM). For the same molecule, the MBC (P. aeruginosa ATCC 10145; H2O) was 256 µg/mL (≈ 352 µM), the MBC (P. aeruginosa ATCC 10145; water additive DMSO) was 256 µg/mL (≈ 352 µM) and the MIC ([4]; H2O) was over 512 µg/mL. It also gave an MIC ([4]; water additive DMSO) of over 512 µg/mL, an MBC ([4]; water additive EtOH) of over 512 µg/mL and an MIC ([4]; water additive EtOH) of 512 µg/mL (≈ 704 µM). The MBC (S. aureus ATCC 43300; H2O) was 32 µg/mL (≈ 44 µM), the MIC (S. aureus ATCC 43300; H2O) was 32 µg/mL (≈ 44 µM) and the MBC (S. aureus ATCC 43300; water additive DMSO) was 32 µg/mL (≈ 44 µM). The MIC (S. aureus ATCC 43300; water additive DMSO) was 16 µg/mL (≈ 22 µM), the MBC (S. aureus ATCC 43300; water additive EtOH) was 32 µg/mL (≈ 44 µM) and the MIC (S. aureus ATCC 43300; water additive EtOH) was 16 µg/mL (≈ 22 µM). For the same molecule, the “MIC value for S. aureus” value (S. aureus ATCC 43300; additive not stated) was 16 µg/mL, the “cytotoxicity (LDH), in words” value (fibroblasts (46BR.1N)) was “high cytotoxic effect only to fibroblasts at the highest tested concentration” and the MBC (S. pyogenes ATCC 19615; H2O) was 4 µg/mL (≈ 5.5 µM). It also gave an MIC (S. pyogenes ATCC 19615; H2O) of 4 µg/mL (≈ 5.5 µM), an MBC (S. pyogenes ATCC 19615; water additive DMSO) of 8 µg/mL (≈ 11 µM) and an MIC (S. pyogenes ATCC 19615; water additive DMSO) of 4 µg/mL (≈ 5.5 µM). It also gave an MBC (S. pyogenes ATCC 19615; water additive EtOH) of 8 µg/mL (≈ 11 µM), an MIC (S. pyogenes ATCC 19615; water additive EtOH) of 4 µg/mL (≈ 5.5 µM) and an MBC (E. coli ATCC 25922; H2O) of over 512 µg/mL. The MIC (E. coli ATCC 25922; H2O) was 512 µg/mL (≈ 704 µM), the MBC (E. coli ATCC 25922; water additive DMSO) was over 512 µg/mL and the MIC (E. coli ATCC 25922; water additive DMSO) was 512 µg/mL (≈ 704 µM). It also gave an MBC (E. coli ATCC 25922; water additive EtOH) of over 512 µg/mL, an MIC (E. coli ATCC 25922; water additive EtOH) of 512 µg/mL (≈ 704 µM) and an MIC (S. mutans c.i.; water additive DMSO) of 32 µg/mL (≈ 44 µM). The MIC (S. mutans c.i.; water additive EtOH) was 32 µg/mL (≈ 44 µM).
